“Also recorded” adds a separate entry of the source.
How the values were obtained:
mice [1] = test: Kaolin-induced writhing test; type: in vivo
Description: (§1) Mice were used for the kaolin-induced writhing test and the formalin test, wherein animal model for assessment of chronic pain is used [Pain, 51, 195-198 (1992)].
b) Kaolin-Induced Writhing Test
The test was proposed by Fujiyoshi, T. et al. as a nociceptive test for the assessment of endogenous bradykinin-induced pain [Fujiyoshi et al., Agents and Actions, 27, 332 (1989)]. In the present invention, a method somewhat modified from the Fujiyoshi test was used for the assessment. That is, a suspension of 125 mg/kg of kaolin in 0.2% Tween 80 solution was intraperitoneally administered to mice in a dose of 0.25 ml/10 g. Immediately thereafter, the total number of writhing reactions which were observed during 20 minutes was counted.
Thirty minutes, 1 hour and 2 hours before administration of kaolin, L-threo-DOPS was subcutaneously administered in a dose ranging from 100 to 400 mg/kg.
(§2) In the left graph, the symbol .largecircle. denotes the group administered with vehicle only, and the symbol .circle-solid. denotes the group administered with L-threo-DOPS. […] The symbol V denotes the group administered with vehicle only (n=5). **P<0.01, ***P<0.001 (when compared to the group administered with vehicle only).
(§3) The results obtained in the respective tests are all shown by means ±standard error. Statistically significant difference between the groups was determined by Student's t-test or Newman-Keuls test. When P<0.05, the difference was judged to be significant.

[2] = cited from earlier work
mice [3] = test: Effect of naloxone on L-threo-DOPS antinociception, tail flick test; type: in vivo; details: for type of analgesic activity: from naloxone tests (tail flick and kaolin)
Experimental: (§4) Antagonistic Effect of L-threo-DOPS Antinociceptive Action on Naloxone (Morphine Antagonist)
(§5) Tests were conducted in the same way as the tail flick test method and the kaolin-induced writhing test method in Test Example 1 described above. In the tail flick test method, however, 1 mg/kg of naloxone was subcutaneously administered 40 minutes after administration of 400 mg/kg of L-threo-DOPS, and the latency was measured 60 minutes after the 400 mg/kg L-threo-DOPS administration. The obtained data are shown in terms of change in latency (Δ latency). In the kaolin-induced writhing test, 0.01 mg/kg of naloxone was subcutaneously administered 55 minutes after administration of 400 mg/kg of L-threo-DOPS, and kaolin was administered 5 minutes after the administration of naloxone.
(§6) The results obtained in the tests are all shown by means ±standard error. Statistically significant difference between the groups was determined by Student's t-test or Newman-Keuls test. When P<0.05, the difference was judged to be significant.
(§7) The symbol V denotes the group administered with vehicle only, and the symbol N.S. denotes that there is no significant difference as compared to the control group.

mouse = test: Acute toxicity (LD50) in mouse; details: oral and intraperitoneal
[4] = Acute toxicity (LD50) in mouse; details: in vivo
mice [5] = test: Effect of phentolamine on L-threo-DOPS antinociception, tail flick test; type: in vivo
Experimental: Effect of Phentolamine as an α-Adrenaline Receptor Blocker on the Antinociceptive Action of L-threo-DOPS
Phentolamine was administered intracerebral-ventricularly (i.c.v.) or intrathecaly (i.th.) in a dose of 0.1 to 1 μg/mouse, 40 minutes after L-threo-DOPS was administered in a dose of 400 mg/kg. Then, the effect of phentolamine against L-threo-DOPS-induced antinociceptive action was determined in the tail flick test.
Statistically significant difference between the groups was determined by Student's t-test or Newman-Keuls test. When P<0.05, the difference was judged to be significant.
The results in FIG. 5 indicates change in latency (Δ latency, second) 60 minutes after the L-threo-DOPS administration.

mice [6] = test: Formalin-induced nociceptive test; type: in vivo
Experimental: as §1
c) Formalin-Induced Nociceptive Test
Formalin (0.5%, 25 μl) was administered subcutaneously into a mouse at the sole of the right hind paw. Immediately thereafter, the time required for the mouse to conduct licking or biting behavior was counted for 30 minutes at intervals of 5 minutes. The results are shown separately for Phase I (0-5 minutes after the formalin administration) and Phase II (10-30 minutes after the formalin administration). […]
The symbol V denotes the group administered with vehicle only. *P<0.05 (as compared to the group administered with vehicle only).
as §3

mice [7] = test: Tail flick test, subcutaneous L-threo-DOPS; type: in vivo
Experimental: Thermal stimulation at a certain level was given onto mice at the tail, and the latency until the animal flicked the tail out of the thermal stimulation was measured. The analgesic effect was judged in terms of prolonged latency by administration of a drug (tail-flick test, see European Journal of Pharmacology, 212, 1992).
The test was conducted by using a tail flick analgesia meter (MK-330, Muromachi Kikai). The intensity of the beam was adjusted to produce a control latency of 2 to 2.5 seconds, and a cut-off time was set to be 8 seconds. The experimental data obtained were shown in terms of latency (second).
L-Threo-DOPS was suspended in a 0.2% Tween 80 solution and the resulting suspension was subcutaneously administered in a dose of 100 to 400 mg/kg. The tail flick latency was then measured with passage of time to determine antinociceptive action, namely, analgesic activity.
as §2, with “only (n=8),” for “only,”, “L-threo-DOPS (n=5).” for “L-threo-DOPS.”, “In the right graph, the” for “The”, “only. *P<0.05, **P<0.01” for “only (n=5). **P<0.01, ***P<0.001”
as §3

mice [8] = test: Tail flick test, oral L-threo-DOPS; type: in vivo
Experimental: Antinociceptive Action of L-threo-DOPS by Oral Administration
L-Threo-DOPS was orally administered to mice in doses of 200, 400 and 800 mg/kg, and was examined for the antinociceptive action according to the tail flick test method.
(§8) The results obtained in this test are all shown by means ±standard error. Statistically significant difference between the groups was determined by Student's t-test or Newman-Keuls test. When P<0.05, the difference was judged to be significant.
The results in FIG. 7 indicate, in the tail flick test, a relationship between the dose of L-threo-DOPS when orally administered and change in latency (Δ latency, second) 60 minutes after the L-threo-DOPS administration (n=6). *P<0.05, **P<0.01 (as compared to the control group).

mice [9] = test: Effect of benserazide on L-threo-DOPS antinociception, tail flick test; type: in vivo; details: L-threo-DOPS 400 mg/kg s.c., 60 minutes
Experimental: Effect of Benserazide (Peripheral Nerve Decarboxylase Inhibitor) on the Antinociceptive Action of L-threo-DOPS
Benserazide was administered subcutaneously in a dose of 1 mg/kg, 60 minutes before the subcutainious administration of L-threo-DOPS (400 mg/kg). Alternatively, benserazide was administered intracerebralventricularly at a dose of 25 μg/mouse, 30 minutes before L-threo-DOPS was subcutaneously administered in a dose of 400 mg/kg. The effect of benserazide on the L-threo-DOPS-induced antinociceptive action 60 minutes after the L-threo-DOPS administration was examined according to the tail flick test.
as §8
The results in FIG. 6 indicate change in latency (Δ latency, second) 60 minutes after the L-threo-DOPS administration. […] The symbol V denotes the group administered with vehicle only, and the symbol N.S. denotes that there is no significant difference as compared to the control group.

mice [10] = test: Effect of naloxone on L-threo-DOPS antinociception, kaolin-induced writhing test; type: in vivo; details: L-threo-DOPS 400 mg/kg; naloxone 0.01 mg/kg s.c.; 60 minutes
Experimental: as §4, §5, §6, §7

[11] = 100 to 400 mg/kg s.c., 60 minutes after administration

Structure (SMILES): N[C@H](C(=O)O)[C@H](O)c1ccc(O)c(O)c1 (relative stereo) [threo-DOPS, threo-3-(3,4-dihydroxyphenyl)serine]
- analgesic effect in kaolin-induced writhing test (summary) (mice [1]; s.c. and oral, mice): dose- dependently observed
- fate after administration ([2]; known, U.S. Pat. No. 4,497,826): transported to a brain that is a site on which threo-DOPS acts, and then decarboxylated therein into a corresponding noradrenaline
- transportation into brain in combination with decarboxylase inhibitor ([2]; with decarboxylase inhibitor, J. Pharm. Pharmacol., 1981, 33, 772-777): can be accelerated
- type of analgesic activity (mice [3]): non-narcotic
- analgesic effect in presence of naloxone (summary) (mice [3]; morphine antagonist naloxone, tail flick and kaolin tests): not antagonized by morphine antagonist, naloxone
- toxicity (mouse): extremely weak toxicity
- LD50 ([4]; ip): ~10000 mg/kg
- LD50 ([4]; po): ≥ 10000 mg/kg
- analgesic effect in presence of phentolamine (summary) (mice [5]; adrenaline blocker phentolamine administered in the brain): suppressed
- analgesic effect in formalin test (summary) (mice [6]; s.c. and oral, mice): dose- dependently observed
- analgesic effect in tail-flick test (summary) (mice [7]; s.c., mice): exhibits the analgesic effect dose-dependently

Structure (SMILES): N[C@H](C(=O)O)[C@H](O)c1ccc(O)c(O)c1 [L-threo-DOPS]
- antinociceptive action, kaolin-induced writhing (mice [1]; 200 mg/kg s.c.): significant antinociceptive action
- count of kaolin-induced writhing response (mice [1]; 200 mg/kg s.c.): decreased to the half
- decrease in writhing count (mice [1]; 200 mg/kg s.c., 30 minutes after administration): the observed decrease was insignificant
- decrease in writhing count (mice [1]; 200 mg/kg s.c., 2 hours after administration): the observed decrease was insignificant
- effect on writhing, dose dependence (mice [1]; [11]): dose-dependent in the range of 100 to 400 mg/kg
- effectiveness by oral administration (mice [8]; oral): also effective when orally administered
- time after administration at which significant effect was observed (mice [8]; oral, 200, 400 and 800 mg/kg): ≥ 40 min
- time of maximum antinociceptive effect (mice [8]; oral, 200, 400 and 800 mg/kg): 60 min
- antinociceptive action, dose dependence (oral tail flick) (mice [8]; oral, 200 to 800 mg/kg): dose-dependently
- antinociceptive action in presence of benserazide (mice [9]; benserazide 25 μg/mouse i.c.v.): potently inhibited
- antinociceptive action in presence of benserazide (mice [9]; benserazide 1 mg/kg s.c.): did not give any significant effect
- antinociceptive action in presence of naloxone (tail flick) (mice [3]; L-threo-DOPS 400 mg/kg, naloxone 1 mg/kg s.c., 60 minutes): hardly affected by morphine antagonist, naloxone
- type of analgesic activity (mice [3]): non-narcotic analgesic activity; also recorded: non-opiate type antinociceptive action
- inhibitory effect of phentolamine on L-threo-DOPS-induced prolongation of latency (mice [5]; L-threo-DOPS 400 mg/kg s.c., phentolamine 0.1 μg/mouse i.c.v.): also observed
- prolongation of latency by L-threo-DOPS in presence of phentolamine (mice [5]; L-threo-DOPS 400 mg/kg s.c., phentolamine 1 μg/mouse i.c.v.): almost completely inhibited
- antinociceptive action of L-threo-DOPS in presence of phentolamine, right graph of FIG. 5 (mice [5]; L-threo-DOPS 400 mg/kg s.c., phentolamine 1 μg/mouse, printed intracerebralventricularly (right graph)): partially but significantly inhibited
- effect of increased dose in formalin test (mice [6]; 400 mg/kg s.c., not shown in graphs): no better effect was obtained
- time required for nociceptive reaction (licking and biting), Phase I (mice [6]; 100 to 200 mg/kg s.c., 0-5 minutes after formalin): did not affect the time required for the nociceptive reaction
- time required for nociceptive reaction (licking and biting), Phase II (mice [6]; 100 to 200 mg/kg s.c., 10-30 minutes after formalin): dose-dependently inhibited the reaction
- antinociceptive action in presence of naloxone (kaolin-induced writhing) (mice [10]): hardly affected by morphine antagonist, naloxone
- time after administration at which significantly prolonged tail flick latency was observed (mice [7]; 400 mg/kg s.c.): ≥ 40 min
- time of maximum tail flick latency (mice [7]; 400 mg/kg s.c.): one
- tail flick latency (mice [7]; 400 mg/kg s.c., 40 or more minutes after administration): significantly prolonged latency
- tail flick latency, significance of effect (mice [7]; 400 mg/kg s.c., 2 hours after administration): no significant effect was observed
- antinociceptive action, dose dependence (tail flick) (mice [7]; [11]): dose-dependent in the range of 100 to 400 mg/kg

Structure (SMILES): Cc1ccc(N(CC2=NCCN2)c2cccc(O)c2)cc1 [phentolamine]
- tail flick latency, phentolamine alone (mice [5]; phentolamine 1 μg/mouse i.c.v.): did not affect the latency

From US5616618A, “Threo-3-(3,4-dihydroxyphenyl)serine analgesic composition” (priority 1993, dated 1997)
